Reference: patent US11472845B2, “Antitumor peptide and use thereof” (TOAGOSEI CO., LTD., priority 2019, dated 2022)
Read-outs that look alike come from different tables or passages of the source. Ends that are not written are not given here.

System: human breast cancer cell lines (MDA-MB-231)
Assay type: cell-based
Conditions: for Cell viability (%) of test cells: human, 48 h
Protocol: The antitumor activity of Sample 1 synthesized in the above Test Example 1 with respect to human-derived cultured tumor cells was evaluated. Currently commercially available human gastric cancer cell lines (FU97), human alveolar basal epithelial adenocarcinoma cell lines (A549), human breast cancer cell lines (MDA-MB-231), and human melanoma cell lines (A375) were prepared as test tumor cells. In addition, normal human mammary epithelial cell culture lines (MCF-12F) were prepared for comparison. A DMEM culture medium including 0.1 mM of non-essential amino acids, 50 unit/mL of penicillin, 50 μg/mL of streptomycin, and 10% FBS. The above five types of cell lines were cultured in respective designated culture solutions. The cell lines were cultured so that the number of cells per well in a 96-hole (well) plate was about 5×10^3. Here, an amount of the culture solution per well was 100 μL. The 96-well plate was then placed in a CO2 incubator. Then, pre-incubation was performed under conditions of 37° C. and 5% CO2 for about 1 day (about 23 hours). Then, regarding the culture solution for the peptide addition area, culture solutions containing Sample 1 for each concentration were prepared so that the concentration of Sample 1 was 6.25 μM, 12.5 μM or 25 μM and supplied to wells (that is, wells after the pre-incubation) in which 90 μL of cells to be evaluated were cultured in each well. On the other hand, regarding the culture solution for the comparative test area, a culture solution to which no Sample 1 was added was prepared, and supplied to wells (that is, wells after the pre-incubation) in which 90 μL of cells to be evaluated were cultured in each well. The 96-well plate was then placed in a CO2 incubator, and incubated under conditions of 37° C. and 5% CO2 for 48 hours. […] Then, the absorbance at a wavelength of 450 nm (value corrected by the absorbance at a wavelength of 620 nm: A450-A620) was measured based on the reduction of the tetrazolium salt in the culture solution. Then, the cell viability was calculated according to a colorimetric method. In the test areas (test areas 1 to 3) in the peptide addition area, the cell viability of each of the above five types of cell lines was calculated as a relative value when a measured value (measurement absorbance) of the comparative test area in the same cell lines was set as 100%. That is, regarding each of the above five types of cell lines, the cell viability (%) was calculated by dividing the measurement absorbance of the test areas (test areas 1 to 3) in the peptide addition area by the measurement absorbance of the comparative test area in the same cell lines and multiplying by 100.

MACLGFQRHKAQLNLATRTWPCTLLFFLLFIPVFCKKRTLRKTDRKKR-NH2 (cysteines drawn unpaired) [Sample 1]
Specific cell viability of test tumor cells (MDA-MB-231, 12.5 μM Sample 1, (cell viability of test tumor cells)/(cell viability of MCF-12F cells)×100): 47.9 | Cell viability (%) of test cells (6.25 μM): 67.8% | Cell viability (%) of test cells (12.5 μM): 54.7% | Cell viability (%) of test cells (25 μM): 41.6%
